Data published in EP1994923A2, “Cosmetic and dermatological compositions for dry skin” (Henkel AG & Co. KGaA, priority 2007, dated 2008).

Tested on: Aquaporine (AQ3)
Test: Influence on aquaporin synthesis in a skin model (indirect immunohistology)
Format: cell-based
Conditions: skin model as in WO 03/053394 A2; 10 mg/ml test solution (extracts: 10 mg dry substance per ml); added systemically to the medium every two days; frozen after 6 days; cryosections
Procedure: An einem Hautmodell, wie in WO 03/053394 A2 beschrieben, wurde der Einfluss folgender Substanzen auf die Aquaporinsynthese überprüft: • 1.) Ergothionein (10 mg/ml Testlösung) • 2.) Wässriger Extrakt aus Laminaria digitata (mit einem hohen Anteil an Laminarin; verwendet wurde das Handelsprodukt Phycojuvenine in einer solchen Menge, dass die Testlösung eine Konzentration von 10 mg Extrakt-Trockensubstanz pro ml aufwies) • 3.) Wässriges Proteinhydrolysat von Hefeproteinen (verwendet wurde das Handelsprodukt Biodynes TRF Powder von Arch Chemicals Inc. in einer von 10 mg Extrakt-Trockensubstanz pro ml Testlösung)
Die Hautmodelle wurden nach Ankunft in frisches Medium gesetzt. Nach Vorinkubation über Nacht wurden sie alle zwei Tage mit den Testsubstanzen behandelt, indem der Wirkstoff systemisch in das Medium gegeben wurde. Die Kulturen wurden nach 6 Tagen für Cryoschnitte bei -80 °C eingefroren. Zum Zeitpunkt 0 wurden Kontrollproben eingefroren.
Zum Nachweis von Aquaporinen (AQ3) wurde die indirekte Immunhistologie angewendet. Hierbei bindet ein unkonjungierter Primärantikörper an das Antigen. Anschließend wird ein Sekundärantikörper eingesetzt, der gegen den Primärantikörper gerichtet ist.

With `C[N+](C)(C)[C@@H](Cc1cnc(S)[nH]1)C(=O)[O-]` [Ergothionein, 2-Mercapto-N^αN^αN^α-trimethyl-L-histidinium-Betain] as the molecule, how does the “Aquaporinsynthese (Induktion der Aquaporine (AQ3))” value read?
Its value is “stimulierten”.
